Measurements as given in US7919622B2, “Intermediates for fluorinated tetrabenazine carbinol compounds imaging agents and probes” (priority 2007, dated 2011).

Biological target: T1, VMAT-2 (Homo sapiens, UniProt Q05940)
T1 construct: Novascreen Biosciences Corporation (contract assay provider) protocol Cat. No. 100-0751
Assay: VMAT-2 binding affinity measurement (Novascreen protocol Cat. No. 100-0751)
Conditions: for Ki: VMAT-2 binding affinity, reserpine value is the average of two Ki values; for binding affinity for VMAT-2 (in words): relative to reserpine and DTBZ controls
Excerpt: Novascreen, Inc. is a commercial provider of biological assays for the pharmaceutical industry. […] In addition, the binding constants Ki expressed in nano-molar (nM) concentration units indicate a very high affinity of the fluoroalkyl tetrabenazine carbinol compounds of the present invention for the VMAT-2 biomarker.

T1 sequence (Q05940 whole entry, species assumed): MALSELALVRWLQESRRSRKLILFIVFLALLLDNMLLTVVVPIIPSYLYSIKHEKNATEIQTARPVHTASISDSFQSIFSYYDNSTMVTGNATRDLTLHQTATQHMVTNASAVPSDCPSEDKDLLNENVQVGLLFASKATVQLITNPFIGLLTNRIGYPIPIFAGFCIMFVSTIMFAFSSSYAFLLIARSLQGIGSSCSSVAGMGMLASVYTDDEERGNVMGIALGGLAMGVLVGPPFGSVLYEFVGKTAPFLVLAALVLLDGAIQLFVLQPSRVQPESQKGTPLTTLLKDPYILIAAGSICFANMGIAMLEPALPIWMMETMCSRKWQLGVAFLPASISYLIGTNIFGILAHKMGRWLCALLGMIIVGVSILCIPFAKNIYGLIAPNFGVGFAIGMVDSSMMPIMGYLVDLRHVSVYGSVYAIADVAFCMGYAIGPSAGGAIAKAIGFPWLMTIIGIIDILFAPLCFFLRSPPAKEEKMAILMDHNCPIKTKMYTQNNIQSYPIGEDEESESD

`COc1cc2c(cc1OC)[C@H]1C[C@](O)(C#CCF)[C@H](CC(C)C)CN1CC2` [Compound 17] was tested, and the Ki was 19 nM and the “binding affinity for VMAT-2 (in words)” value was “very high binding affinity”.

With `COc1cc2c(cc1OC)[C@H]1C[C@@](C#CCF)(OC(C)=O)[C@H](CC(C)C)CN1CC2` [Compound 16, (2R,3R,11bR)-2-(3-fluoroprop-1-ynyl)-3-isobutyl-9,10-dimethoxy-2,3,4,6,7,11b-hexahydro-1-H-pyrido[2,1-α]isoquinolin-2-yl acetate] the Ki was 19 nM and the “binding affinity for VMAT-2 (in words)” value was “very high binding affinity”.
